# How the values were obtained:
# Format in all cases: functional
# PC-6 [1] = experiment: Compound was tested for growth inhibitory activity after 72 hr of continuous exposure against human lung cancer cell line PC-6; conditions: PC-6, 72 h
# P388 = experiment: Compound was tested for growth inhibitory activity after 72 hr of continuous exposure against mouse leukemia P388; conditions: P388, 72 h
# PC-6 [2] = experiment: Compound was tested for growth inhibitory activity after 72 hr of continuous exposure against vincristine resistant cancer cell line PC-6/VCR; conditions: Homo sapiens, PC-6, 72 h
GI50 (P388) [µg/mL],Structure (SMILES),GI50 (PC-6 [1]) [µg/mL],GI50 (PC-6 [2]) [µg/mL]
0.0401,CC(=O)O[C@H]1C(=O)[C@@]2(C)[C@H]([C@H](OC(=O)c3ccccc3)[C@]3(O)C[C@H](OC(=O)[C@H](O)[C@@H](NC(=O)OC(C)(C)C)c4ccccc4)C(CN=[N+]=[N-])=C1C3(C)C)[C@]1(OC(C)=O)CO[C@@H]1C[C@@H]2O,0.0524,0.39
0.393,CC(=O)NCC1=C2[C@@H](OC(C)=O)C(=O)[C@@]3(C)[C@H]([C@H](OC(=O)c4ccccc4)[C@](O)(C[C@@H]1OC(=O)[C@H](O)[C@@H](NC(=O)OC(C)(C)C)c1ccccc1)C2(C)C)[C@]1(OC(C)=O)CO[C@@H]1C[C@@H]3O,0.131,> 1
0.00745,CCC1=C2[C@@H](OC(C)=O)C(=O)[C@@]3(C)[C@H]([C@H](OC(=O)c4ccccc4)[C@](O)(C[C@@H]1OC(=O)[C@H](O)[C@@H](NC(=O)OC(C)(C)C)c1ccccc1)C2(C)C)[C@]1(OC(C)=O)CO[C@@H]1C[C@@H]3O,0.0103,0.167

# Further lines, the molecule ahead of its results:
Structure (SMILES),GI50 (P388) [µg/mL],GI50 (PC-6 [1]) [µg/mL],GI50 (PC-6 [2]) [µg/mL]
CC(=O)OCC1=C2[C@@H](O)C(=O)[C@@]3(C)[C@H]([C@H](OC(=O)c4ccccc4)[C@](O)(C[C@@H]1OC(=O)[C@H](O)[C@@H](NC(=O)OC(C)(C)C)c1ccccc1)C2(C)C)[C@]1(OC(C)=O)CO[C@@H]1C[C@@H]3O,0.181,0.163,> 1
CC(=O)O[C@H]1C(=O)[C@@]2(C)[C@H]([C@H](OC(=O)c3ccccc3)[C@]3(O)C[C@H](OC(=O)[C@H](O)[C@@H](NC(=O)OC(C)(C)C)c4ccccc4)C(C=O)=C1C3(C)C)[C@]1(OC(C)=O)CO[C@@H]1C[C@@H]2O,> 1,0.699,> 1
CC(=O)O[C@@]12CO[C@@H]1C[C@H](O)[C@@]1(C)C(=O)[C@H](O)C3=C(C)[C@@H](OC(=O)[C@H](O)[C@@H](NC(=O)OC(C)(C)C)c4ccccc4)C[C@@](O)([C@@H](OC(=O)c4ccccc4)[C@H]21)C3(C)C.O.O.O [DOCETAXEL],0.00162,0.00116,0.173
CC(=O)O[C@@]12CO[C@@H]1C[C@H](O)[C@@]1(C)C(=O)[C@H](O)C3=C(CC#N)[C@@H](OC(=O)[C@H](O)[C@@H](NC(=O)OC(C)(C)C)c4ccccc4)C[C@@](O)([C@@H](OC(=O)c4ccccc4)[C@H]21)C3(C)C,0.00837,0.00481,0.754
CC(=O)O[C@@]12CO[C@@H]1C[C@H](O)[C@@]1(C)C(=O)[C@H](O)C3=C(CN4CCOCC4)[C@@H](OC(=O)[C@H](O)[C@@H](NC(=O)OC(C)(C)C)c4ccccc4)C[C@@](O)([C@@H](OC(=O)c4ccccc4)[C@H]21)C3(C)C,> 1,> 1,> 1

# — ChEMBL document CHEMBL1129804, “First synthesis and cytotoxic activity of novel docetaxel analogs modified at the C18-position” (1997)
